Values quoted from earlier work, collected in patent US12311004B2, “Ophthalmic formulations and methods of use” (VISION SOLUTIONS, LLC, priority 2023, dated 2025).

Key:
[1] = oral, cat
FHV-1 = details: low concentrations, in vitro

NCCCC[C@H](N)C(=O)O [L-lysine]
daily intake at which arginine deficiency is likely to occur [1]: exceeding 80 g/kg | effect on the replication kinetics of the virus (FHV-1): no effect
